Entries after “also recorded” stand apart in the source; their conditions may differ.
Tests used:
[1] = test system: human fetal articular chondrocytes; assay: Alkaline phosphatase / hypertrophy in fetal articular chondrocytes; format: cell-based
[2] = test system: gp130; assay: gp130 null Ba/F3 cells transfected with full-length gp130 or ΔD2 mutant; format: cell-based; details: WT gp130 vs ΔD2 mutant
Procedure: (§1) Based on this, it was hypothesized that RCGD 423 acts through gp130 by promoting stable homodimers in the absence of ligand. To confirm that RCGD 423 acts through gp130, the gp130 null cell line Ba/F3 cells was used. Ba/F3 cells were transfected with either full-length gp130 or a mutant gp130 lacking domain 2 (ΔD2), which contains the predicted binding site for RCGD 423 (FIG. 7). […] To verify the specificity of RCGD 423 in vivo, the compound was injected into rat knees in the presence of the small molecule gp130 inhibitor SC144 or a blocking antibody specific for domain 2 of gp130. […] The ability of RCGD 423 to act via inducing formation of gp130 homodimers was then examined by expressing tagged versions of gp130 in 293T cells. In this system, only homodimeric complexes can contain both tagged versions of gp130 (FIG. 9).

[3] = molecular target: T1, gp130 homodimers (Homo sapiens, UniProt P40189); assay: Tagged gp130 homodimer detection in 293T cells; format: cell-based; details: tagged gp130 in 293T cells
T1 construct: Myc; expressed in transfected cells; host or cells: 293T
T1 sequence (P40189 23-918) 1: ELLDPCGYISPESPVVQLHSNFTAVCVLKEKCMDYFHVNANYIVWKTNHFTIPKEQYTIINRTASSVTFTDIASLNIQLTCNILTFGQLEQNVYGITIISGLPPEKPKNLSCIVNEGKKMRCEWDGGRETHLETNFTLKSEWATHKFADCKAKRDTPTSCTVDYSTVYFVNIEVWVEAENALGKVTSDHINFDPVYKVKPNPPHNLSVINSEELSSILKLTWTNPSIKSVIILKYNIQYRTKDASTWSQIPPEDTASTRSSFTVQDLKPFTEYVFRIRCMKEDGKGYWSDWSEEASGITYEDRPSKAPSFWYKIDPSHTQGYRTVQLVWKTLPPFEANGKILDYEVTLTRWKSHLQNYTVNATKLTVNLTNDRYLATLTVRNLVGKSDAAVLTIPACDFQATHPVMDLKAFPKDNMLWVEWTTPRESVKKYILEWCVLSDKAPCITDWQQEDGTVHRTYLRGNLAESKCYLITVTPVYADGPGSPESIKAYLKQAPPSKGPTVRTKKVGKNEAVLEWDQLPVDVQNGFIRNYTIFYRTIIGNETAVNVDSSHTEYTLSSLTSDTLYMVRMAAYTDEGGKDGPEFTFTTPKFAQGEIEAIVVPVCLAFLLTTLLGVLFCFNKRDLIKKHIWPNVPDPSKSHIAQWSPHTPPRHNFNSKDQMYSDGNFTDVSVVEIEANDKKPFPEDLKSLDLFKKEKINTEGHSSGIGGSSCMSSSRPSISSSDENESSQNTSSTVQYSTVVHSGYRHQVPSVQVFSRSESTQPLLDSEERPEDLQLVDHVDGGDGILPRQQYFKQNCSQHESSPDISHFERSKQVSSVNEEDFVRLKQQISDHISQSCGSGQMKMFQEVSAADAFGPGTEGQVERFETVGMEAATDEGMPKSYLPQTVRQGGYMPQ
T1 sequence (P40189 23-918) 2: T1 sequence (P40189 23-918) 1
Procedure: as §1

[4] = test system: NF-κB protein; assay: OSM or IL-6 induced NF-κB in human adult articular chondrocytes; format: cell-based; details: in combination with OSM or IL-6
[5] = molecular target: T2, OSMR and gp130 (Homo sapiens, UniProt P40189); assay: Receptor competition, gp130-Flag pull-down, OSMR; format: cell-based; details: in the presence of OSM; IP-FLAG, WB-OSMR
T2 construct: FLAG; expressed in transfected cells; host or cells: adult human chondrocytes
T2 sequence (P40189 23-918): T1 sequence (P40189 23-918) 1
Procedure: Adult human chondrocytes transfected with gp130-Flag were incubated with various concentrations of RCGD 423 in the presence of IL-6 or OSM; levels of immoprecipitated IL-6R or OSMR were used to calculate the dissociation constant (Kd).
Adult human chondrocytes; IP-FLAG AB (transfected with gp130 FLAG plasmid), WB-OSMR.
This property would be of great interest due to the pro-inflammatory and pro-catabolic effects of these cytokines in the joint space. […] To assess whether RCGD 423 could directly compete for gp130 occupancy, human adult articular chondrocytes were transfected with tagged gp130 and then pulled down associated proteins±RCGD 423 and/or IL-6.

[6] = Rat model of degenerative osteoarthritis (partial meniscectomy); format: in vivo
Procedure: In this system, 50% of the meniscus is surgically removed, promoting joint instability similar to what is commonly observed in human OA and degeneration of articular cartilage in 3-6 weeks (FIGS. 12A and B). RCGD 423 loaded onto PLGA (poly(lactic-co-glycolic acid)) microspheres for slow release, or microspheres alone, were injected into the joint space at the time of surgery and 3 weeks later.

[7] = test system: adult human synoviocytes; assay: ERK and NF-κB downstream of OSM and IL-6 in synoviocytes; format: cell-based
Procedure: (§2) Accordingly, the ability of RCGD 423 to suppress signaling downstream of IL-6 and OSM in synoviocytes and peripheral blood mononuclear cells was assessed (FIG. 14).

[8] = test system: adult human PBMCs; assay: ERK and NF-κB downstream of OSM and IL-6 in PBMCs; format: cell-based
Procedure: as §2

## Brc1ccc(Nc2nc(-c3ccccc3)cs2)cc1 [RCGD 423]
[1]
  increases in alkaline phosphatase, a marker of hypertrophy: could prevent increases in alkaline phosphatase; also recorded: ability of the compound to inhibit hypertrophy was confirmed
[2]
  gp130 signaling in gp130−/− Ba/F3 cells: full-length gp130 is required for the activity of RCGD 423; also recorded: only increase gp130 signaling in the presence of RCGD 423 and WT gp130
[3]
  detection of gp130 homodimers (gp130-Myc): only in the presence of RCGD 423 could gp130 homodimers be detected; also recorded: gp130-Myc was only detectable in the presence of RCGD 423
[4]
  increases in NF-κB protein / signaling downstream of OSM and IL-6: significantly reduced increases in NF-κB protein; also recorded: reduces signaling downstream of OSM and IL-6
[5]
  competition with OSMR for gp130 occupancy / OSMR-gp130 interaction: directly competes with OSMR and IL-6R for gp130 occupancy
[6]; 6 weeks, loaded onto PLGA microspheres, injected into joint space at surgery and 3 weeks later
  OARSI scores: highly significantly lower OARSI scores
[6]; rat OA model
  expression of proteolytic (catabolic) enzymes after joint injury: decreased the expression of proteolytic enzymes; also recorded: decreased the levels of catabolic enzymes
[6]; rats following partial meniscectomy
  formation, size and maturity of osteophytes: inhibited both the formation and maturity of osteophytes; also recorded: reduced the size and maturity of osteophytes
[7]
  increases in ERK and NF-κB levels downstream of OSM and IL-6: inhibits increases in ERK and NF-κB levels
[8]
  increases in ERK and NF-κB levels downstream of OSM and IL-6: inhibits increases in ERK and NF-κB levels

From patent publication US12577238B2, “Compositions and methods for modulating inflammatory and degenerative disorder” (University of Southern California, priority 2018, dated 2026)
